From patent publication US20220024921A1, “1,3,4-OXADIAZOLONE COMPOUND AND PHARMACEUTICAL” (NIPPON SHINYAKU CO., LTD., priority 2018, published 2022)
Counter-ions that a name gives are not always drawn.

How the values were obtained:
[1] = target: T1, PIM1 serine/threonine kinase (Homo sapiens, UniProt P11309); experiment: PIM1 serine/threonine kinase inhibitory effect; format: biochemical; settings: PIM1 serine/threonine kinase activity; ATP 40 μM; 30° C., 30 minutes
T1 construct: purchased Carna Bioscience, Inc
T1 sequence (P11309 whole entry): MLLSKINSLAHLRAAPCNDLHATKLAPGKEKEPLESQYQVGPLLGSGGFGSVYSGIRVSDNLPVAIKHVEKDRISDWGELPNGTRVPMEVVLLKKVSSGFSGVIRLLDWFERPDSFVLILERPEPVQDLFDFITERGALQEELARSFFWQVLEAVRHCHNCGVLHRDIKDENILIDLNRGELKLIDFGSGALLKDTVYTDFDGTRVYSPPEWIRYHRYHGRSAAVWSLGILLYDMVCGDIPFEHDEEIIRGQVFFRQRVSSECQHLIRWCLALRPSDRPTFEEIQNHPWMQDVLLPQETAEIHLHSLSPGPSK
How it was run: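 Compounds were tested in duplicate from 0.01 to 10000 nM final against PIM1 kinase (0.15 μg/ml). The reaction ran for 30 minutes at 30° C with 40 μM ATP and 0.5 μM biotin-tagged substrate at pH 7.0. Phosphorylation was read by time-resolved FRET (OD665/OD620) after 1 h; IC50 by non-linear fit.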

[2] = target: PIM1 transgenic cells (Ba/F3) (Homo sapiens, UniProt P11309); experiment: Proliferation inhibitory effect on PIM1 transgenic cells; format: cell-based, mouse; settings: proliferation inhibition, 72 hours, Cell Counting Kit-8, read-out: PIM1 IC50
Sequence of PIM1 transgenic cells (Ba/F3) (P11309 whole entry, stated change not applied): as the sequence (P11309 whole entry) above
How it was run: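 Mouse Ba/F3 pro-B cells were retrovirally transduced with human PIM1 so that their proliferation depends on PIM1. Cells were treated with compound at 1–10000 nM final for 72 h, then read by CCK-8 (OD450−OD650). Inhibition was set against DMSO (0%) and no-cell blank (100%), and IC50 was obtained by two-parameter logistic regression.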

[3] = target: PIM2 transgenic cells (Ba/F3) (Homo sapiens, UniProt Q9P1W9); experiment: Proliferation inhibitory effect on PIM2 transgenic cells; format: cell-based, mouse; settings: proliferation inhibition, 72 hours, Cell Counting Kit-8, read-out: PIM2 IC50
Sequence of PIM2 transgenic cells (Ba/F3) (Q9P1W9 whole entry, stated change not applied): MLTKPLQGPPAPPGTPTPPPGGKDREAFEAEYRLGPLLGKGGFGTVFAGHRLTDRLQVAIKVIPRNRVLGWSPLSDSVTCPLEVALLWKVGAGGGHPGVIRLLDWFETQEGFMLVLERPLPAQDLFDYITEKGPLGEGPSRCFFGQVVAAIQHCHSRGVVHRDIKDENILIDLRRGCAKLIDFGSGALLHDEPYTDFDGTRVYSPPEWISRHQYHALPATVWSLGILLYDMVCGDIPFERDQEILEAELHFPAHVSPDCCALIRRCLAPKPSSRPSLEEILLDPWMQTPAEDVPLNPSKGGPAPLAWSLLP
Text: (§1) Human PIM1, 2, and 3 genes were inserted into the multi-cloning sites of retrovirus expression vectors pMYs-IRES-GFP, respectively, to prepare gene transfer vectors. Then, each gene transfer vector was introduced into packaging cells PLAT-E derived from a human fetal kidney cell line in the logarithmic growth phase, using a transfection reagent (FuGENE6, Promega Corporation). Since the culture supernatant of PLAT-E after gene transfer contained virus particles for gene transfer, the culture supernatant was collected and used as a medium for gene transfer. The medium for gene transfer was added to a plate coated with RetroNectin, and the plate was incubated to attach the virus particles to the plate. Then, a mouse pro-B cell line Ba/F3 in the logarithmic growth phase was seeded on the plate and infected with the virus to prepare PIM1, 2, or 3 transgenic cells that proliferate in a PIM 1, 2, or 3-dependent manner. The expression of PIM1, 2, or 3 protein in each cell was confirmed by Western blotting.
(§2) Each test substance was prepared to 10 mM with dimethylsulfoxide (DMSO), and diluted with DMSO so as to have concentrations of 3000, 1000, 300, 100, 30, 10, 3, and 1 μM. Moreover, each dilution was further diluted 10-fold with distilled water to prepare a test substance solution.
(§3) PIM1, 2, 3-expressing cells were seeded on a 96-well plate, and each test substance solution prepared the next day was added such that final concentrations were 10000, 3000, 1000, 300, 100, 30, 10, 3, and 1 nM. 72 hours after the addition, 10 μL of Cell Counting Kit-8 (DOJINDO LABORATORIES) was added to each well. After incubation for 1 to 4 hours, absorbance OD450 at 450 nm was measured. In addition, absorption OD650 at 650 nm as a reference wavelength was measured.
(§4) OD450-OD650 for each condition was calculated, and then the inhibition rates when OD450-OD650 of negative control (DMSO only) and OD450-OD650 of Blank (without cells) were set to 0% and 100%, respectively, were calculated. Then, non-linear regression analysis was performed for logarithmic dose and inhibition rate using a two-parameter logistic model to estimate IC50 values.
(§5) For the compounds with the following Example numbers, in addition to the above proliferation inhibitory effect on PIM1 transgenic cells, the proliferation inhibitory effect on PIM2 transgenic cells and the proliferation inhibitory effect on PIM3 transgenic cells were calculated as IC50.

[4] = target: PIM3 transgenic cells (Ba/F3) (Homo sapiens, UniProt Q86V86); experiment: Proliferation inhibitory effect on PIM3 transgenic cells; format: cell-based, mouse; settings: proliferation inhibition, 72 hours, Cell Counting Kit-8, read-out: PIM3 IC50
Text: as §1, §2, §3, §4, §5

[5] = tested on: graft-versus-host disease model CB6F1 mice; experiment: Lymphocyte proliferation inhibitory effect using graft-versus-host disease model animals (splenomegaly formation); format: in vivo; settings: Mus musculus, 240 h, oral, twice a day for 10 days, GVHD model CB6F1 mice, read-out: Inhibition rate (%) (splenomegaly formation); for inhibition in vivo at 3 mg/kg: single dose 3 mg/kg; for inhibition in vivo at 10 mg/kg: single dose 10 mg/kg
Description: BALB/c mice (8-week-aged female) were euthanized, and then the spleen was removed from each mouse. Then, hemolysis treatment was performed to isolate spleen cells. The obtained spleen cells were intravenously transplanted into CB6F1 mice (8-week-aged female), which are C57BL/6 and BALB/c F1 mice, to prepare a model, and splenomegaly was induced. For transplantation, spleen cells for 1.2 BALB/c mouse were used for one CB6F1 mouse.
Each test substance shown in Table 64 was weighed and dissolved in a 0.5% methyl cellulose solution, thereby preparing test substance solutions of 0.3 to 10 mg/mL.
A vehicle (0.5% methyl cellulose solution) or test substance was orally administered to each CB6F1 mouse after transplantation at a dose of 3 to 50 mg/kg in terms of body weight twice a day for 10 days from the day after transplantation. The mouse was euthanized on the 11th day from the start of administration, then the spleen was removed therefrom, and the wet weight of the spleen was measured. For each of CB6F1 mice that had not undergone transplantation as a control group, the wet weight of the spleen was also measured.
The splenomegaly formation inhibition rate when the spleen weights of the mice to which the vehicle was administered after transplantation and the mice on which transplantation had not been performed were 0% and 100%, respectively, was calculated.

[6] = target: T2, PIM2 serine/threonine kinase (Homo sapiens, UniProt Q9P1W9); experiment: PIM2 serine/threonine kinase inhibitory effect; format: biochemical; settings: PIM2 serine/threonine kinase activity; ATP 2 μM; 30° C., 30 minutes
T2 construct: purchased Carna Bioscience, Inc
T2 sequence (Q9P1W9 whole entry): as the sequence (Q9P1W9 whole entry, stated change not applied) above
Description: (§6) Each test substance was prepared to 10 mM with dimethylsulfoxide (DMSO), and further diluted with DMSO so as to have concentrations of 1000, 300, 100, 30, 10, 3, 1, 0.3, 0.1, 0.03, 0.01, and 0.001 μM. Moreover, each dilution was further diluted 33.3-fold with an assay buffer to prepare a test substance solution. The composition of the assay buffer was 50 mM HEPES (pH 7.0), 0.02% NaN3, 0.01% Bovine Serum Albumin, 0.1 mM Orthovanadate, 1 mM Dithiothreitol, and 5 mM MgCl2.
(§7) 5 μL of each test substance solution was added to 384-well plates (n=2), and then 2.5 μL of a substrate solution (substrate 3-biotin (Cisbio Bioassays SAS), final concentration in the reaction solution: 0.5 μM) and 2.5 μL of an ATP solution (in the cases of PIM1, 2, 3, the final concentrations in the reaction solutions were 40, 2, and 10 μM, respectively) were added, 5 μL of each of PIM1, 2, 3 serine/threonine kinase solutions (Carna Bioscience, Inc., the final concentrations in the reaction solutions were 0.15, 1.6, and 0.25 μg/ml, respectively) was finally added, and the mixture was reacted at 30° C. for 30 minutes. The test substance concentrations in the reaction solutions are 10000, 3000, 1000, 300, 100, 30, 10, 3, 1, 0.3, 0.1, and 0.01 nM.
(§8) Thereafter, 15 μL of each detection solution (62.5 nM Streptavidin-XL665 (Cisbio Bioassays SAS), […] STK antibody-Cryptate (Cisbio Bioassays SAS), 50 mM HEPES (pH 7.0), 0.8 M KF, 0.1% Bovine Serum Albumin, 20 mM ethylenediaminetetraacetic acid) was added to each well. After stirring, the mixture was reacted at 30° C. for 1 hour. Absorbance (OD620, OD665) at 620 and 665 nm was measured with a microplate reader (SpectraMax M5e, Molecular Devices, LLC).
(§9) Non-linear regression analysis was performed by an SAS system (SAS Institute Inc.) using the ratio (OD665/OD620) of the measured absorbance to calculate a test substance concentration (IC50) that inhibits PIM1 serine/threonine kinase activity by 50%.
(§10) For the compounds with the following Example numbers, in addition to the above PIM1 serine/threonine kinase activity (IC50), test substance concentrations (IC50) that inhibit PIM2 serine/threonine kinase activity and PIM3 serine/threonine kinase activity by 50% were calculated.

[7] = target: T3, PIM3 serine/threonine kinase (Homo sapiens, UniProt Q86V86); experiment: PIM3 serine/threonine kinase inhibitory effect; format: biochemical; settings: PIM3 serine/threonine kinase activity; ATP 10 μM; 30° C., 30 minutes
T3 construct: purchased Carna Bioscience, Inc
Description: as §6, §7, §8, §9, §10

[8] = tested on: graft-versus-host disease model CB6F1 mice; experiment: Lymphocyte proliferation inhibitory effect using graft-versus-host disease model animals (splenomegaly formation); format: in vivo; settings: Mus musculus, 240 h, single dose 100 mg/kg, oral, twice a day for 10 days, GVHD model CB6F1 mice, read-out: Inhibition rate (%) (splenomegaly formation)

Row | SMILES | IC50 [1] [nM] | GI50 [2] [nM] | GI50 [3] [nM] | GI50 [4] [nM] | IC50 [6] [nM] | IC50 [7] [nM] | inhibition in vivo at 3 mg/kg [5] [%] | inhibition in vivo at 10 mg/kg [5] [%] | inhibition in vivo at 25 mg/kg ([5]; single dose 25 mg/kg) [%] | inhibition in vivo at 50 mg/kg ([5]; single dose 50 mg/kg) [%] | inhibition in vivo at 100 mg/kg [8] [%]
1 | C[C@@H]1CNCC[C@@H]1[C@H](C)Nc1cc(-c2n[nH]c(=O)o2)cc(F)c1OC(F)(F)F [Example 219, 5-[3-fluoro-5-({(1S)-1-[(3S,4S)-3-methylpiperidin-4-yl]ethyl}amino)-4-(trifluoromethoxy)phenyl]-1,3,4-oxadiazol-2(3H)-one] | 1.8 | 11 | 1100 | 40 |  |  | 27.7 | 33.8 |  |  | 
2 | C[C@H](Nc1cc(-c2n[nH]c(=O)o2)cc(F)c1OC(F)(F)F)[C@H]1CCNC[C@H]1F [Example 224, 5-[3-fluoro-5-({(1S)-1-[(3S,4R)-3-fluoropiperidin-4-yl]ethyl}amino)-4-(trifluoromethoxy)phenyl]-1,3,4-oxadiazol-2(3H)-one] | 0.8 | 7.1 | 510 | 35 |  |  | 22.8 | 39.1 |  |  | 
3 | C[C@H](Nc1cc(-c2n[nH]c(=O)o2)ccc1C(F)(F)F)C1CCNCC1 [Example 58, 5-[3-{[(1S)-1-(piperidin-4-yl)ethyl]amino}-4-(trifluoromethyl)phenyl]-1,3,4-oxadiazol-2(3H)-one hydrochloride] | 2 | 33 | 3600 | 570 | 18 | 16 |  |  | 19 | 41.6 | 39.8

More lines, main results first:

Row | IC50 [1] [nM] | GI50 [2] [nM] | GI50 [3] [nM] | GI50 [4] [nM] | IC50 [6] [nM] | IC50 [7] [nM] | SMILES | inhibition in vivo at 3 mg/kg [5] [%] | inhibition in vivo at 10 mg/kg [5] [%] | inhibition in vivo at 25 mg/kg ([5]; single dose 25 mg/kg) [%] | inhibition in vivo at 50 mg/kg ([5]; single dose 50 mg/kg) [%] | inhibition in vivo at 100 mg/kg [8] [%]
4 | 1.6 | 11 | 290 | 59 |  |  | C[C@H](Nc1cc(-c2n[nH]c(=O)o2)cc(F)c1C(F)(F)F)[C@H]1CCNC[C@H]1F [Example 223, 5-[3-fluoro-5-({(1S)-1-[(3S,4R)-3-fluoropiperidin-4-yl]ethyl}amino)-4-(trifluoromethyl)phenyl]-1,3,4-oxadiazol-2(3H)-one hydrochloride] | 34.1 | 36.8 |  |  | 
5 | 1.1 | 7.6 | 390 | 51 |  |  | CC[C@@H]1CNCC[C@@H]1[C@H](C)Nc1cc(-c2n[nH]c(=O)o2)cc(F)c1C(F)(F)F [Example 225, 5-[3-({(1S)-1-[(3S,4S)-3-ethylpiperidin-4-yl]ethyl}amino)-5-fluoro-4-(trifluoromethyl)phenyl]-1,3,4-oxadiazol-2(3H)-one] | 18.9 | 32.3 |  |  | 
